Measured values: PMC7926793, “Synthesis and Biological Evaluation of 1-(Diarylmethyl)-1H-1,2,4-triazoles and 1-(Diarylmethyl)-1H-imidazoles as a Novel Class of Anti-Mitotic Agent for Activity in Breast Cancer” (Pharmaceuticals, 2021)

What was measured:
[1] = system: MCF-10A non-tumorigenic human mammary epithelial cells; test: toxicity evaluation, alamarBlue assay; type: cell-based; settings: 10 μM, 24 h
[2] = system: tubulin (microtubule network) in MCF-7 cells; test: immunofluorescence confocal microscopy of microtubule network; type: cell-based, human; settings: 10 μM, 16 h
Procedure: Confocal microscopy was used to study the effects of drug treatment on MCF-7 cytoskeleton. For immunofluorescence, MCF-7 cells were seeded at 1 × 10^5 cells/mL on eight chamber glass slides (BD Biosciences). […] Following treatment, cells were gently washed in PBS, fixed for 20 min with 4% paraformaldehyde in PBS, and permeabilised in 0.5% Triton X-100. Following washes in PBS containing 0.1% Tween (PBST), cells were blocked in 5% bovine serum albumin diluted in PBST. […] Following washes in PBST, the cells were mounted in Ultra Cruz Mounting Media (Santa Cruz Biotechnology, Santa Cruz, CA) containing 4,6-diamino-2-phenolindol dihydrochloride (DAPI). Images were captured by Leica SP8 confocal microscopy with Leica application suite X software. All images in each experiment were collected on the same day using identical parameters. Experiments were performed on three independent occasions.

[3] = HPLC stability study in phosphate buffers; type: physicochemical
Procedure: Stability studies for compounds 21l and 24 were performed by analytical HPLC using a Symmetry® column (C18, […], 4.6 × 150 mm), a Waters 2487 Dual Wavelength Absorbance detector, a Waters 1525 binary HPLC pump, and a Waters 717 plus Autosampler (Waters Corporation, Milford, MA, USA). Samples were detected at λ 254 nm using acetonitrile (70%)/water (30%) as the mobile phase over 15 min and a flow rate of 1 mL/min. Stock solutions of the compounds are prepared using 10 mg of compounds 21l and 24 in 10 mL of mobile phase (1 mg/mL). Phosphate buffers at the desired pH values (4, 7.4, and 9) were prepared following the British Pharmacopoeia monograph 2020. Then, 30 μL of stock solution was diluted with 1 mL of appropriate buffer, shaken, and injected immediately. Samples were withdrawn and analysed at time intervals of t = 0 min, 5 min, 30 min, 60 min, and hourly for 24 h.

HL-60 leukaemia cells = test: cell viability assay; type: cell-based; settings: Homo sapiens, read-out: Antiproliferative Activity HL-60 Cells IC50
Procedure: The human breast carcinoma cell line MCF-7 was purchased from the European Collection of Animal Cell Cultures (ECACC) and cultured in Eagles minimum essential medium with 10% foetal bovine serum, 2 mM L-glutamine, and 100 μg/mL penicillin/streptomycin. The medium was supplemented with 1% non-essential amino acids. The human breast carcinoma cell line MDA-MB-231 was purchased from the ECACC. MDA-MB-231 cells were maintained in Dulbecco’s modified Eagle’s medium (DMEM) supplemented with 10% (v/v) foetal bovine serum, 2 mM L-glutamine, and 100 μg/mL penicillin/streptomycin (complete medium). HL-60 cells were derived from a patient with acute myeloid leukaemia and were obtained from the ECACC (Salisbury, UK). Cells were cultured in RPMI-1640 Glutamax medium supplemented with 10% FCS media and 100 μg/mL penicillin/streptomycin. MCF-10A cells were obtained as a kind gift from Dr Susan McDonnell, School of Chemical and Bioprocess Engineering, University College Dublin and were cultured in Dulbecco’s Modified Eagle Medium: Nutrient Mixture F-12 (DMEM/F12; Gibco) supplemented with 5% horse serum (Invitrogen), 20 ng mL^−1 epidermal growth factor (Merck Millipore), 0.5 μg mL^−1 hydrocortisone (Sigma,-Aldrich, Arklow, Co. Wicklow, Ireland), 100 ng mL^−1 cholera toxin (Sigma, Aldrich, Arklow, Co. Wicklow, Ireland), 10 μg mL^−1 insulin (Sigma, Aldrich, Arklow, Co. Wicklow, Ireland), and penicillin/streptomycin 5000 U mL^−1 (1%)(Gibco, Biosciences, 3 Charlemont Terrace, Crofton Road, Dun Laoghaire, Co Dublin, A96 K7H7, Ireland). […]
Cells were seeded at a density of 2.5 × 10^4 cells/well (MCF-7, MDA-MB-231, MCF-10A cells) and 1 × 10^4 cells/well (HL-60) in 96-well plates (200 μL per well). […] Cell proliferation for MCF-7, MDA-MB-231, and MCF-10A cells was analysed using the alamarBlue assay (Invitrogen Corp.) according to the manufacturer’s instructions. […] Fluorescence was read using a 96-well fluorimeter with excitation at 530 nm and emission at 590 nm. Results were expressed as percentage viability relative to vehicle control (100%).

MCF-7 cells [4] = test: cell cycle analysis, PI staining, flow cytometry; type: cell-based, human; settings: 1 μM
Procedure: The cells were collected by trypsinisation and centrifuged at 800× g for 15 min. Cells were washed twice with ice-cold phosphate-buffered saline (PBS) and fixed in ice-cold 70% ethanol overnight at −20 °C.

MCF-7 cells [5] = test: Annexin V/PI apoptotic assay; type: cell-based, human; settings: 48 h
Procedure: (§1) Apoptotic cell death was detected by flow cytometry using Annexin V and propidium iodide (PI). MCF-7 and MDA-MB-231 cells were seeded in 6-well plates at a density of 1 × 10^5 cells/mL (3 mL) and treated with either vehicle (0.1% (v/v) EtOH), Phenstatin (7a), or 21l at different concentrations for the selected time. Then, cells were harvested and prepared for flow cytometric analysis. […] Then, cells were washed once in binding buffer and then re-suspended in PI-containing binding buffer (1:1000). […] Four populations are produced during the assay: Annexin V and PI negative (Q4, healthy cells), Annexin V positive and PI negative (Q3, early apoptosis), Annexin V and PI positive (Q2, late apoptosis), and Annexin V negative and PI positive (Q1, necrosis).

MDA-MB-231 cells = test: Annexin V/PI apoptotic assay; type: cell-based, human; settings: 48 h
Procedure: as §1

COc1ccc(C(c2cc(OC)c(OC)c(OC)c2)n2cncn2)cc1O (stereo not shown) [19e, 5-((1H-1,2,4-Triazol-1-yl)(3,4,5-Trimethoxyphenyl)methyl)-2-Methoxyphenol]
cell death [1]: approximately 50% | effect on microtubule network of MCF-7 cells [2]: disorganised microtubule networks

COc1ccc(C(c2cc(OC)c(OC)c(OC)c2)n2ccnc2)cc1O (stereo not shown) [21l, 5-((1H-Imidazol-1-yl)(3,4,5-Trimethoxyphenyl)Methyl)-2-Methoxyphenol]
compound remaining (HPLC) ([3]; pH 4, 24 h): 90% | cell death [1]: approximately 50% | effect on microtubule network of MCF-7 cells [2]: disorganised microtubule networks | IC50 (HL-60 leukaemia cells): 0.156 ± 0.052 µM | cells in the G2/M phase (MCF-7 cells [4]; 24 h): 47% | cells undergoing apoptosis (sub-G1) (MCF-7 cells [4]; 24 h): 15% | cells in the G2/M phase (MCF-7 cells [4]; 48 h): 43% | cells undergoing apoptosis (sub-G1) (MCF-7 cells [4]; 48 h): 31% | cells in the G2/M phase (MCF-7 cells [4]; 72 h): 40% | cells undergoing apoptosis (sub-G1) (MCF-7 cells [4]; 72 h): 37% | viability at 0.1 µM (MCF-7 cells [5]; Homo sapiens, MCF7, MCF-7, 0.1 μM, Figure 9A, read-out: Viable): 85.4% | viability at 0.5 µM (MCF-7 cells [5]; Homo sapiens, MCF7, MCF-7, 0.5 μM, Figure 9A, read-out: Viable): 81.9% | viability at 1 µM (MCF-7 cells [5]; Homo sapiens, MCF7, MCF-7, 1 μM, Figure 9A): 79.4% | Annexin V-stained positive cells (total apoptotic cells) (MCF-7 cells [5]; MCF-7, 0.1 μM): 14.1% | Annexin V-stained positive cells (total apoptotic cells) (MCF-7 cells [5]; MCF-7, 0.5 μM): 17.5% | Annexin V-stained positive cells (total apoptotic cells) (MCF-7 cells [5]; MCF-7, 1 μM): 19.3% | viability at 0.1 µM (MDA-MB-231 cells; Homo sapiens, MDA-MB-231, 0.1 μM, Figure 9B, read-out: Viable): 95.3% | viability at 0.5 µM (MDA-MB-231 cells; Homo sapiens, MDA-MB-231, 0.5 μM, Figure 9B, read-out: Viable): 93.1% | viability at 1 µM (MDA-MB-231 cells; Homo sapiens, MDA-MB-231, 1 μM, Figure 9B): 91.5% | total apoptotic cells (MDA-MB-231 cells; MDA-MB-231, 0.1 μM): 3.6% | total apoptotic cells (MDA-MB-231 cells; MDA-MB-231, 0.5 μM): 5.9% | total apoptotic cells (MDA-MB-231 cells; MDA-MB-231, 1.0 μM): 6.9%

COc1ccc(C(c2cc(OC)c(OC)c(OC)c2)n2nccn2)cc1O (stereo not shown) [compound 24]
compound remaining (HPLC) ([3]; pH 4, 24 h): 65% | compound remaining (HPLC) ([3]; pH 7.4, 24 h): 50% | compound remaining (HPLC) ([3]; pH 9, 24 h): 60% | IC50 (HL-60 leukaemia cells): 0.173 ± 0.055 µM | cells in the G2/M phase (MCF-7 cells [4]; 24 h): 52% | cells in the G2/M phase (MCF-7 cells [4]; 48 h): 56% | cells in the G2/M phase (MCF-7 cells [4]; 72 h): 59%
